Broadly, the Kd is the concentration at which binding is half-saturated.

Calls of active or inactive are those of the source.

In experiment [1] the target is Adenylate kinase 2, mitochondrial (Homo sapiens, UniProt P54819).
The target of experiment [2] is Cyclin-dependent kinase 6 (Homo sapiens, UniProt Q00534).
In experiment [3] the target is T1, Dual specificity mitogen-activated protein kinase kinase 5 (Homo sapiens, UniProt Q13163).
T1 sequence (Q13163 whole entry): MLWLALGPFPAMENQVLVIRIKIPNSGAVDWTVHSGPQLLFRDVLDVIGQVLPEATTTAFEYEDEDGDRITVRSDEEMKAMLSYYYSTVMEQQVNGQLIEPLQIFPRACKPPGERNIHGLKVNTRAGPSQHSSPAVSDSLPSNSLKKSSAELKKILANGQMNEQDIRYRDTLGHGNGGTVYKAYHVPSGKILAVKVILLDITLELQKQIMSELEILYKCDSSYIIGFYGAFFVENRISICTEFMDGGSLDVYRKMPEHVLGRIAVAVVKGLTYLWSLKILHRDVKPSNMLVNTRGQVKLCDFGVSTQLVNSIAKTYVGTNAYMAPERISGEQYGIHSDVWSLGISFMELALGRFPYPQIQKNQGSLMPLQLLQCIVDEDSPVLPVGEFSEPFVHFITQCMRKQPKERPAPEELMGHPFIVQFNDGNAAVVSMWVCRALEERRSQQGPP

Experiment [4] concerns the target T2, Mitogen-activated protein kinase kinase kinase 6 (Homo sapiens, UniProt O95382).
T2 sequence (O95382 whole entry): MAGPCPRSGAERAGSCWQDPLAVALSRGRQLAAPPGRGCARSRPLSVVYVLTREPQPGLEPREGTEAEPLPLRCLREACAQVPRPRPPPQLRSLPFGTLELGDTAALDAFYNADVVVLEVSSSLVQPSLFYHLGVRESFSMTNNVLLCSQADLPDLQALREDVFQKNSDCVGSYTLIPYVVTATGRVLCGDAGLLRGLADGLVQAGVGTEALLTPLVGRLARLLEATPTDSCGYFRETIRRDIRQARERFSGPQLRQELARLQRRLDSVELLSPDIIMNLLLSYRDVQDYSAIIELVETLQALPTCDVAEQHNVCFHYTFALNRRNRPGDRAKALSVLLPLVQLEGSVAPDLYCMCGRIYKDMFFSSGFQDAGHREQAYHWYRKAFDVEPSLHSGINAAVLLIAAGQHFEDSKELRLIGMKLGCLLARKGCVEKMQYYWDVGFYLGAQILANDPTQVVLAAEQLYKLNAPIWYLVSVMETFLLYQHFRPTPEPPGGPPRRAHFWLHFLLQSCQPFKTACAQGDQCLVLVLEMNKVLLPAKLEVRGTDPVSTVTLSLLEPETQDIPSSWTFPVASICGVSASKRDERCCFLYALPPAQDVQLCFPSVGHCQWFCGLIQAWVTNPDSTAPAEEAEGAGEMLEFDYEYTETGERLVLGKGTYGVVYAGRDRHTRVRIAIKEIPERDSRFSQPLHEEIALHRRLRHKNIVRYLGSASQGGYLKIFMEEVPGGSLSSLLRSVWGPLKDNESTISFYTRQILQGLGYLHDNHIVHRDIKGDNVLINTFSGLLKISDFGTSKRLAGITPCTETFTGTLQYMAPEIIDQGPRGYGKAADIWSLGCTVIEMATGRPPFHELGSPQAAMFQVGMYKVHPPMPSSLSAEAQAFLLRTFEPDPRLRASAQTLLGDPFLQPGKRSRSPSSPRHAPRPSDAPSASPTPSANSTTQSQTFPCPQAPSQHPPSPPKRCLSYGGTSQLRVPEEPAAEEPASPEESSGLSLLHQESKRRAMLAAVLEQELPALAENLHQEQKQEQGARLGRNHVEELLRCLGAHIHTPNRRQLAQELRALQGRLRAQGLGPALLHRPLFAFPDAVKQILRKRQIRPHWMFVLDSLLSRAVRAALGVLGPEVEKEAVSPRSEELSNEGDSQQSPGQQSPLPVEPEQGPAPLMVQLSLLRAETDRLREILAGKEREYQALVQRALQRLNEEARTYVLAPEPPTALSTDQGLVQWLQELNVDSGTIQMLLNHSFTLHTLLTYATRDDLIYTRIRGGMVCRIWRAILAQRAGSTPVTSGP

Experiment [5] has as its target T3, STE20-related kinase adapter protein alpha (Homo sapiens, UniProt Q7RTN6).
T3 sequence (Q7RTN6 whole entry): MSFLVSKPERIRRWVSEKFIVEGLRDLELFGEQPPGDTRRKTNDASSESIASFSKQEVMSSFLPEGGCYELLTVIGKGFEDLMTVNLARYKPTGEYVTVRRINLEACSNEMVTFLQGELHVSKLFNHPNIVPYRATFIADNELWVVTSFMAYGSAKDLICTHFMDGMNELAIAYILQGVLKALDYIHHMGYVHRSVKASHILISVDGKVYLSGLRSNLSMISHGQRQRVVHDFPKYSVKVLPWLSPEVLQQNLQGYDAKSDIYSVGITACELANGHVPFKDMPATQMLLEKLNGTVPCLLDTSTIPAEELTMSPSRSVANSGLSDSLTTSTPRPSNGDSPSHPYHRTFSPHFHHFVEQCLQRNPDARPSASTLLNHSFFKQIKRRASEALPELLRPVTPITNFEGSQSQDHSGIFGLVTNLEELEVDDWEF

Experiment [6] deals with Tyrosine-protein kinase Yes (Homo sapiens, UniProt P07947).
Sequence of Tyrosine-protein kinase Yes (P07947 whole entry): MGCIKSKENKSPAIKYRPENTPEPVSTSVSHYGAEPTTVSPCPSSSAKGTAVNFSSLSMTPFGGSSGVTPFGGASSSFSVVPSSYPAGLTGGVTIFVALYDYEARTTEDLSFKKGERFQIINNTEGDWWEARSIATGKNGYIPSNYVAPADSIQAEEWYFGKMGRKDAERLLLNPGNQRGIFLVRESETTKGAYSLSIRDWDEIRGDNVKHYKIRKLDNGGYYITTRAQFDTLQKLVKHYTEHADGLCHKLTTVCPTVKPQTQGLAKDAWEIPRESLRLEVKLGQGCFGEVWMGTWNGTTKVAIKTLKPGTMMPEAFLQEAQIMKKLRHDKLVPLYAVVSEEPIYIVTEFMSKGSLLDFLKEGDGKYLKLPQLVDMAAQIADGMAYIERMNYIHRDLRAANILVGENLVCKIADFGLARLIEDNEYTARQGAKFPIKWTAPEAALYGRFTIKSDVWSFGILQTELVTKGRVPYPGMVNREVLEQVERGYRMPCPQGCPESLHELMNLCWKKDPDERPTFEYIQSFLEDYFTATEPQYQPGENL
Experiment [7] deals with T4, MAP kinase-activated protein kinase 5 (Homo sapiens, UniProt Q8IW41).
T4 sequence (Q8IW41 whole entry): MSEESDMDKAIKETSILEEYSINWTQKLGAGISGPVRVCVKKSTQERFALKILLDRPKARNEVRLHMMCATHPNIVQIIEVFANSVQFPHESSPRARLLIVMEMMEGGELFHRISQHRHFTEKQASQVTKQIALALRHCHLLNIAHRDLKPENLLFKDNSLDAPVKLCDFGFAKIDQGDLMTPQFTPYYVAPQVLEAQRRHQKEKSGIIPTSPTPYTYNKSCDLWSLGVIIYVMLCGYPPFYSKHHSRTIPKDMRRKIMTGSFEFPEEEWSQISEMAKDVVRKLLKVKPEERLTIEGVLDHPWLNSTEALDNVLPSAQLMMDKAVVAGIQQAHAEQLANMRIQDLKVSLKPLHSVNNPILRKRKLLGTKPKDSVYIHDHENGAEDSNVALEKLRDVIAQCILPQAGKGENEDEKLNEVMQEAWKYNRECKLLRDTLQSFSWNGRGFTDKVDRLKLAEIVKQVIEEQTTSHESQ

Experiment [8] addresses Ribosomal protein S6 kinase alpha-3 (Homo sapiens, UniProt P51812).
Experiment [9] deals with MAP/microtubule affinity-regulating kinase 3 (Homo sapiens, UniProt P27448).
Sequence of MAP/microtubule affinity-regulating kinase 3 (P27448 whole entry): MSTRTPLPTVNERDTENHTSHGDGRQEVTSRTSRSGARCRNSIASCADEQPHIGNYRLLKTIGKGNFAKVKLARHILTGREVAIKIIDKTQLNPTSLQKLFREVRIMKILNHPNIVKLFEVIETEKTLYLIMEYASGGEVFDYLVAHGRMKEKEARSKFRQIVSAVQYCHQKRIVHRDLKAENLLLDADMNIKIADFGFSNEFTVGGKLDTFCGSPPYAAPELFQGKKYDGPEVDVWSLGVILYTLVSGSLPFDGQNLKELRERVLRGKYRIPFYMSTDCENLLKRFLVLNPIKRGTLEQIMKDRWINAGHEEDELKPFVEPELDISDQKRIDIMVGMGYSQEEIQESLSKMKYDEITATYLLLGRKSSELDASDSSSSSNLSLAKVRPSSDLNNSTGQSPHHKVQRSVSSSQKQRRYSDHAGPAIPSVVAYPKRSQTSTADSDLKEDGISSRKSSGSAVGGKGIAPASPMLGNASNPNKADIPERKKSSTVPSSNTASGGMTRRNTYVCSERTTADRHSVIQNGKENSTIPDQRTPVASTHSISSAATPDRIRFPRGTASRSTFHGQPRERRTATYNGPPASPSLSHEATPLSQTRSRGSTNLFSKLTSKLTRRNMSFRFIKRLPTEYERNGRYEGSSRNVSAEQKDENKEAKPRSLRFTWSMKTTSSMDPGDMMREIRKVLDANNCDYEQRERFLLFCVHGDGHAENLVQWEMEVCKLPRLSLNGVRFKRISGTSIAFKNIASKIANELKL
Note: in the data inactive means no Kd found up to 30 µM.

Sequence of Cyclin-dependent kinase 6 (Q00534 whole entry): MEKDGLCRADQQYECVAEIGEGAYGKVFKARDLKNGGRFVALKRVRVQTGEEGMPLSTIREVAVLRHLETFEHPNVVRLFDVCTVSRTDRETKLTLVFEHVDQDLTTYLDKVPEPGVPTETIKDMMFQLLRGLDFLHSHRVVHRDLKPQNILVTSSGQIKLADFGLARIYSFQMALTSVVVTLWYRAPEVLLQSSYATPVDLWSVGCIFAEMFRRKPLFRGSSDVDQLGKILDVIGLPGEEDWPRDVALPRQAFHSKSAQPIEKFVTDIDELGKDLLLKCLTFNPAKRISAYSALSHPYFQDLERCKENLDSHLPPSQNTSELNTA
Sequence of Ribosomal protein S6 kinase alpha-3 (P51812 whole entry): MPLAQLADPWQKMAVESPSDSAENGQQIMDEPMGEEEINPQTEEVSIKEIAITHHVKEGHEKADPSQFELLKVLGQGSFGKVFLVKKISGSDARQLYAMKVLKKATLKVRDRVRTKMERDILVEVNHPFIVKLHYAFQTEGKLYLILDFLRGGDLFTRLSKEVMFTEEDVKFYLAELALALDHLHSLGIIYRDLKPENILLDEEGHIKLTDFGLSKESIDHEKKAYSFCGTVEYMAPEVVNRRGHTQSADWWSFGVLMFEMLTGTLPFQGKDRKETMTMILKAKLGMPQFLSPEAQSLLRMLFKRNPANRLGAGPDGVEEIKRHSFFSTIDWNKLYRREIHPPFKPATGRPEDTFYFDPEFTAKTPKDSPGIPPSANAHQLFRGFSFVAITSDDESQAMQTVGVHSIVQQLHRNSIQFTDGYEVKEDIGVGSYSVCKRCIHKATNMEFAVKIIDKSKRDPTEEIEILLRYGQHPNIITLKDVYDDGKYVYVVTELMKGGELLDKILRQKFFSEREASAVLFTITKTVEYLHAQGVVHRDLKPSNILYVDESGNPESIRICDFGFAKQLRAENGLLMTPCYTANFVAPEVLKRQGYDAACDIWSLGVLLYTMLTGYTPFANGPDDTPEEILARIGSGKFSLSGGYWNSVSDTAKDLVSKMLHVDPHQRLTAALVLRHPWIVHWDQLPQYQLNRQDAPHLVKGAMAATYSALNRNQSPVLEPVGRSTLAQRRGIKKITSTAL

For the compound `COc1cc(Nc2ncc3c(n2)-c2ccc(Cl)cc2C(c2c(F)cccc2OC)=NC3)ccc1C(=O)O` [ALISERTIB], the Kd in experiment [1], in experiment [2], in experiment [3], in experiment [4], in experiment [5] and in experiment [6] was > 30 µM (inactive) throughout.

For `O=C(Nc1c[nH]nc1-c1nc2cc(CN3CCOCC3)ccc2[nH]1)NC1CC1` [AT-9283], the Kd was > 30 µM (inactive) in experiment [1]; 0.047 µM (active) in [3]; > 30 µM (inactive) in [4]; 0.589 µM (active) in experiment [7]; > 30 µM (inactive) in experiment [5]; 0.574 µM (active) in experiment [6].

For `CNC(=O)c1ccccc1Sc1ccc2c(/C=C/c3ccccn3)n[nH]c2c1` [AXITINIB], the Kd in experiment [1], in [2] and in [5] was > 30 µM (inactive) in each case.

For `NC(=O)Nc1cc(-c2cccc(F)c2)sc1C(=O)N[C@H]1CCCNC1` [AZD-7762], the Kd in experiment [1] is > 30 µM (inactive); in experiment [2], > 30 µM (inactive); in [3] it was 0.147 µM (active); in [4] it was > 30 µM (inactive); in experiment [7], > 30 µM (inactive); in experiment [8], > 30 µM (inactive). For the same compound, in experiment [5], the Kd is > 30 µM (inactive).

Consider `COc1cc2ncnc(Oc3cccc(NC(=O)Nc4cc(C(C)(C)C(F)(F)F)on4)c3)c2cc1OC` [CEP-32496], for which the Kd in experiment [1], in experiment [2], in experiment [3], in experiment [4], in experiment [7] and in [9] was > 30 µM (inactive) each time. Besides, the Kd in experiment [8], in experiment [5] and in experiment [6] was > 30 µM (inactive) throughout.

For the compound `CC(C)(C)c1nc(-c2cccc(NS(=O)(=O)c3c(F)cccc3F)c2F)c(-c2ccnc(N)n2)s1` [DABRAFENIB], the Kd in [1] was > 30 µM (inactive); in experiment [2] it was 0.318 µM (active); in experiment [3], 2.29 µM (active); in [4], > 30 µM (inactive); in experiment [9], > 30 µM (inactive); in experiment [5], > 30 µM (inactive). In experiment [6], the Kd came out at 1.28 µM.

As for `Cn1cc(C2=C(c3cn(C4CCN(Cc5ccccn5)CC4)c4ccccc34)C(=O)NC2=O)c2ccccc21` [ENZASTAURIN], the Kd in experiment [1], in experiment [2] and in [5] was > 30 µM (inactive) in each case.

Turning to `C[C@@H](Oc1cc(-n2cnc3ccc(CN4CCN(C)CC4)cc32)sc1C(N)=O)c1ccccc1C(F)(F)F` [GSK-461364], the Kd in [1], in experiment [2] and in [5] was > 30 µM (inactive) each time.

As for `CCn1cc(-c2ccnc3[nH]c(-c4cccc(CN(C)C)c4)cc23)c(-c2ccc(NC(=O)N(C)C)cc2)n1` [GSK-1070916], the Kd is > 30 µM (inactive) in experiment [1]; > 30 µM (inactive) in [2]; 1.93 µM (active) in experiment [3]; > 30 µM (inactive) in experiment [4]; > 30 µM (inactive) in [7]; > 30 µM (inactive) in [5]. Further, in experiment [6], the Kd was > 30 µM (inactive).

On to `Cc1[nH]c(/C=C2\C(=O)Nc3ccccc32)c(C)c1CCC(=O)O` [ORANTINIB], for which the Kd was > 30 µM (inactive) in experiment [1]; > 30 µM (inactive) in experiment [2]; 4.94 µM (active) in [3]; > 30 µM (inactive) in [4]; > 30 µM (inactive) in experiment [5]; > 30 µM (inactive) in experiment [6].

In the case of `NC(=O)c1c(OCc2c(F)cc(Br)cc2F)nsc1NC(=O)NCCCCN1CCCC1` [OSI-632], the Kd in [1] was > 30 µM (inactive); in experiment [2], > 30 µM (inactive); in experiment [3], > 30 µM (inactive); in [4], > 30 µM (inactive); in experiment [5], > 30 µM (inactive); in experiment [6] it was 0.881 µM (active).

As to `CC(=O)NCC(=O)N1[C@@H]2CC[C@H]1c1ccc(Nc3ncc(C(F)(F)F)c(NC4CCC4)n3)cc12` [PF-03814735], the Kd in experiment [1] is > 30 µM (inactive); in experiment [2], 2.08 µM (active); in experiment [4], 1.06 µM (active); in experiment [5] it was > 30 µM (inactive); in [6], > 30 µM (inactive).

As to `CNC(=O)c1cc(Oc2ccc(NC(=O)Nc3cc(C(C)(C)C)nn3-c3ccc4ncccc4c3)c(F)c2)ccn1` [REBASTINIB], the Kd in experiment [1], in experiment [2], in [3], in experiment [4], in experiment [7] and in experiment [9] was > 30 µM (inactive) each time. Further, the Kd in experiment [8] and in experiment [5] was > 30 µM (inactive) throughout.

On to `O=C(NOCCO)c1cc(CN2OCCCC2=O)c(F)c(F)c1Nc1ccc(I)cc1F` [RO-4987655], for which the Kd in experiment [1], in experiment [2] and in [5] was > 30 µM (inactive) in each case.

`N#CC[C@H](C1CCCC1)n1cc(-c2ncnc3[nH]ccc23)cn1` [RUXOLITINIB]: the Kd is > 30 µM (inactive) in [1], > 30 µM (inactive) in experiment [2] and 3.67 µM in [5].

Consider `CN1CCN(CCOc2cc(OC3CCOCC3)c3c(Nc4c(Cl)ccc5c4OCO5)ncnc3c2)CC1` [SARACATINIB], for which the Kd in [1], in experiment [2], in experiment [4], in experiment [7], in experiment [9] and in experiment [8] was > 30 µM (inactive) each time. In addition, in experiment [5], the Kd is > 30 µM (inactive).

The record behind these values is ChEMBL document CHEMBL3991601, “The target landscape of clinical kinase drugs” (Science, 2017).
